Assay results: patent US7759345B2, “Antitumoral derivatives of ET-743” (priority 2001, dated 2010)
Like-named read-outs stand apart in the source and are kept apart here.

Key:
[1] = system: HT-29; assay: Inhibition of cells growth by colorimetric assay (SRB), HT-29; format: cell-based
Experimental: (§1) 2°.—Inhibition of Cells Growth by Colorimetric Assay.
(§2) A colorimetric type of assay, using sulforhodamine B (SRB) reaction has been adapted for a quantitative measurement of cell growth and viability [following the technique described by Philip Skehan, et al. (1990), New colorimetric cytotoxicity assay for anticancer drug screening, J. Natl. Cancer Inst., 82:1107-1112]
(§3) This form of the assay employs 96 well cell culture microplates of 9 mm diameter (Faircloth, 1988; Mosmann, 1983). Most of the cell lines are obtained from American Type Culture Collection (ATCC) derived from different human cancer types.
(§4) Cells are maintained in RPMI 1640 10% FBS, supplemented with 0.1 g/l penicillin and 0.1 g/l streptomycin sulfate and then incubated at 37° C., 5% CO2 and 98% humidity. For the experiments, cells were harvested from subconfluent cultures using trypsin and resuspended in fresh medium before plating.
(§5) Cells are seeded in 96 well microtiter plates, at 5×10^3 cells per well in aliquots of 195 μl medium, and they are allowed to attach to the plate surface by growing in drug free medium for 18 hours. Afterward, samples are added in aliquots of 5 μl in a ranging from 10 to 10^−8 μg/ml, dissolved in DMSO/EtOH/PBS (0.5:0.5:99). After 48 hours exposure, the antitumor effect are measured by the SRB methodology: cells are fixed by adding 50 μl of cold 50% (wt/vol) trichloroacetic acid (TCA) and incubating for 60 minutes at 4° C. Plates are washed with deionized water and dried. One hundred μl of SRB solution (0.4% wt/vol in 1% acetic acid) is added to each microtiter well and incubated for 10 minutes at room temperature. Unbound SRB is removed by washing with 1% acetic acid. Plates are air dried and bound stain is solubilized with Tris buffer. Optical densities are read on a automated spectrophotometric plate reader at a single wavelength of 490 nm.
(§6) The values for mean+/−SD of data from triplicate wells are calculated. Some parameters for cellular responses can be calculated: GI=growth inhibition, TGI=total growth inhibition (cytostatic effect) and LC=cell killing (cytotoxic effect).
(§7) Obtained results may predict the usefulness of a certain drug as a potential cancer treatment. For this technique, compounds which show GI50 values smaller than 10 μg/ml are selected to continue with further studies. GI50's data allow to predict that not only could a drug be cystostatic, but also it could have a potential in terms of tumor reduction.

[2] = system: A-549; assay: Inhibition of cells growth by colorimetric assay (SRB), A-549; format: cell-based
Experimental: as §1, §2, §3, §4, §5, §6, §7

[3] = Homo sapiens, HT-29, 48 h, HT-29, SRB, 48 hours exposure, read-out: GI50 HT-29
[4] = Homo sapiens, HT-29, 48 h, read-out: LC50 HT-29, HT-29, SRB, 48 hours exposure
[5] = Homo sapiens, A549, 48 h, A-549, SRB, 48 hours exposure, read-out: GI50 A-549
[6] = Homo sapiens, A549, 48 h, read-out: LC50 A-549, A-549, SRB, 48 hours exposure
[7] = Homo sapiens, HT-29, 48 h, read-out: HT-29 GI50
[8] = Homo sapiens, HT-29, 48 h, read-out: HT-29 LC50, HT-29, SRB, 48 hours exposure
[9] = Homo sapiens, A549, 48 h, read-out: A-549 GI50
[10] = Homo sapiens, A549, 48 h, read-out: A-549 LC50, A-549, SRB, 48 hours exposure
[11] = Homo sapiens, HT-29, 48 h, HT-29, SRB, 48 hours exposure, read-out: HT-29 GI50
[12] = Homo sapiens, A549, 48 h, A-549, SRB, 48 hours exposure, read-out: A-549 GI50

SMILES | TGI HT-29 ([1]; HT-29, SRB, 48 hours exposure) | GI50 [1, 3] | LC50 (concentration for 50% cell killing) [1, 4] | TGI A-549 ([2]; A-549, SRB, 48 hours exposure) | GI50 [2, 5] | LC50 (concentration for 50% cell killing) [2, 6] | HT-29 TGI ([1]; HT-29, SRB, 48 hours exposure) | A-549 TGI ([2]; A-549, SRB, 48 hours exposure) | also measured
COc1cc2c(cc1OC(=O)C(F)(F)C(F)(F)C(F)(F)F)CCN[C@]21CS[C@@H]2c3c(OC(C)=O)c(C)c4c(c3[C@H](COC1=O)N1C2[C@H]2c3c(cc(C)c(OC)c3O)C[C@@H]([C@@H]1C#N)N2C)OCO4 (stereo partly drawn) [Compound 13] | 3.24E-10 | 0.324 nM | 0.0108 µM | 3.24E-09 | 1.08 nM | 8.65 nM | – | – | –
COc1cc2c(cc1OC(=O)c1cc3ccccc3oc1=O)CCN[C@]21CS[C@@H]2c3c(OC(C)=O)c(C)c4c(c3[C@H](COC1=O)N1C2[C@H]2c3c(cc(C)c(OC)c3O)C[C@@H]([C@@H]1C#N)N2C)OCO4 (stereo partly drawn) [Compound 21] | 1.06E-07 | 5.31 nM | 10.6 µM | 1.06E-08 | 3.34 nM | 10600 nM | – | – | –
C=COC(=O)Oc1cc2c(cc1OC)[C@@]1(CS[C@@H]3c4c(OC(C)=O)c(C)c5c(c4[C@H](COC1=O)N1C3[C@H]3c4c(cc(C)c(OC)c4O)C[C@@H]([C@@H]1C#N)N3C)OCO5)NCC2 (stereo partly drawn) [Compound 29] | 2.16E-09 | 2.16 nM | 1.08 µM | 4.32E-09 | 2.16 nM | 10.8 nM | – | – | –
C=COC(=O)Oc1cc2c(cc1OC)[C@@]1(CS[C@@H]3c4c(OC(C)=O)c(C)c5c(c4[C@H](COC1=O)N1C3[C@H]3c4c(cc(C)c(OC)c4OC(=O)OC=C)C[C@@H]([C@@H]1C#N)N3C)OCO5)NCC2 (stereo partly drawn) [Compound 30] | 8.78E-08 | 87.8 nM | 11 µM | 5.49E-08 | 32.9 nM | 3290 nM | – | – | –
C=COC(=O)Oc1cc2c(cc1OC)[C@@]1(CS[C@@H]3c4c(OC(C)=O)c(C)c5c(c4[C@H](COC1=O)N1C3[C@H]3c4c(cc(C)c(OC)c4OC(=O)OC=C)C[C@@H]([C@@H]1C#N)N3C)OCO5)N(C(=O)OC=C)CC2 (stereo partly drawn) [Compound 31] | 8.15E-08 | 81.5 nM | 10.2 µM | 9.17E-08 | 40.8 nM | 1020 nM | – | – | –
C=COC(=O)Oc1cc2c(cc1OC)[C@@]1(CS[C@@H]3c4c(OC(C)=O)c(C)c5c(c4[C@H](COC1=O)N1C3[C@H]3c4c(cc(C)c(OC)c4O)C[C@@H]([C@@H]1C#N)N3C)OCO5)N(C(=O)OC=C)CC2 (stereo partly drawn) [Compound 32] | 6.60E-09 | 1.1 nM | 0.00988 µM | 6.59E-09 | 2.2 nM | 11 nM | – | – | –
C=COC(=O)N1CCc2cc(O)c(OC)cc2[C@@]12CS[C@@H]1c3c(OC(C)=O)c(C)c4c(c3[C@H](COC2=O)N2C1[C@H]1c3c(cc(C)c(OC)c3O)C[C@@H]([C@@H]2C#N)N1C)OCO4 (stereo partly drawn) [Compound 33] | 1.25E-07 | 34.2 nM | 12.5 µM | 2.50E-08 | 4.37 nM | 12700 nM | – | – | –
COc1cc2c(cc1OC)[C@@]1(CS[C@@H]3c4c(OC(C)=O)c(C)c5c(c4[C@H](COC1=O)N1C3[C@H]3c4c(cc(C)c(OC)c4O)C[C@@H]([C@@H]1C#N)N3C)OCO5)NCC2 (stereo partly drawn) [Compound 34] | 1.29E-08 | 0.809 nM | 12.7 µM | 2.84E-09 | 0.764 nM | 9.06 nM | – | – | –
COc1cc2c(cc1OC)[C@@]1(CS[C@@H]3c4c(OC(C)=O)c(C)c5c(c4[C@H](COC1=O)N1C3[C@H]3c4c(cc(C)c(OC)c4OC)C[C@@H]([C@@H]1C#N)N3C)OCO5)NCC2 (stereo partly drawn) [Compound 35] | 1.25E-08 | 5.41 nM | 12.5 µM | 7.22E-08 | 5.68 nM | 2150 nM | – | – | –
COc1cc2c(cc1O)CCN[C@]21CS[C@@H]2c3c(OC(C)=O)c(C)c4c(c3[C@H](COC1=O)N1C2[C@H]2c3c(cc(C)c(OC)c3OC)C[C@@H]([C@@H]1C#N)N2C)OCO4 (stereo partly drawn) [Compound 36] | 2.55E-08 | 5.67 nM | 12.7 µM | 1.03E-07 | 6.26 nM | 4140 nM | – | – | –
C=COC(=O)Oc1c(C)c2c(c3c1[C@H]1SC[C@]4(NCCc5cc(OC(=O)OC(C)(C)C)c(OC)cc54)C(=O)OC[C@@H]3N3C1[C@H]1c4c(cc(C)c(OC)c4O)C[C@@H]([C@@H]3C#N)N1C)OCO2 (stereo partly drawn) [Compound 118] | – | – | – | – | – | – | 7.79E-09 | 8.90E-08 | GI50 [1, 7]: 7.79 nM; LC50 (concentration for 50% cell killing) [1, 8]: 11.1 µM; GI50 [2, 9]: 3.34 nM; LC50 (concentration for 50% cell killing) [2, 10]: 2220 nM
COc1cc2c(cc1OC(=O)OC(C)(C)C)CCNC21CSC2c3c(OC(=O)CCCCC4SCC5NC(=O)NC54)c(C)c4c(c3C(COC1=O)N1C(C#N)C3Cc5cc(C)c(OC)c(O)c5C(C21)N3C)OCO4 (stereo not drawn) [Compound 123] | – | – | – | – | – | – | 3.14E-09 | 2.09E-08 | GI50 ([1]; HT-29, SRB, 48 hours exposure, read-out: HT-29 GI50): 3.14 nM; CC50 ([1]; HT-29, SRB, 48 hours exposure, read-out: HT-29 LC50): 31.4 nM; GI50 ([2]; A-549, SRB, 48 hours exposure, read-out: A-549 GI50): 7.33 nM; LC50 (50% lethal concentration) ([2]; A-549, SRB, 48 hours exposure, read-out: A-549 LC50): 73.3 nM
COc1cc2c(cc1OC(=O)OC(C)(C)C)CCN[C@]21CS[C@@H]2c3c(OC(=O)[C@H](C)NC(=O)OC(C)(C)C)c(C)c4c(c3[C@H](COC1=O)N1C2[C@H]2c3c(cc(C)c(OC)c3O)C[C@@H]([C@@H]1C#N)N2C)OCO4 (stereo partly drawn) [Compound 125] | – | – | – | – | – | – | 2.00E-10 | 3.00E-09 | GI50 [1, 11]: 0.2 nM; LC50 (concentration for 50% cell killing) [1, 8]: 0.003 µM; GI50 [2, 12]: 1 nM; LC50 (concentration for 50% cell killing) [2, 10]: 8 nM
COc1cc2c(cc1O)CCN[C@]21CS[C@@H]2c3c(OC(=O)C(F)(F)C(F)(F)C(F)(F)F)c(C)c4c(c3[C@H](COC1=O)N1C2[C@H]2c3c(cc(C)c(OC)c3O)C[C@@H]([C@@H]1C#N)N2C)OCO4 (stereo partly drawn) [Compound 143] | – | – | – | – | – | – | 1.08E-08 | 4.32E-08 | GI50 [1, 7]: 10.8 nM; LC50 (concentration for 50% cell killing) [1, 8]: 10.8 µM; GI50 [2, 9]: 21.6 nM; LC50 (concentration for 50% cell killing) [2, 10]: 108 nM
COc1cc2c(cc1O)CCN[C@]21CS[C@@H]2c3c(OC(=O)CCCC[C@@H]4SCC5NC(=O)NC54)c(C)c4c(c3[C@H](COC1=O)N1C2[C@H]2c3c(cc(C)c(OC)c3O)C[C@@H]([C@@H]1C#N)N2C)OCO4 (stereo partly drawn) [Compound 147] | – | – | – | – | – | – | 1.05E-07 | 6.84E-08 | GI50 [1, 11]: 19.7 nM; LC50 (concentration for 50% cell killing) [1, 8]: 10.5 µM; GI50 [2, 12]: 32.6 nM; LC50 (concentration for 50% cell killing) [2, 10]: 1050 nM
COc1cc2c(cc1O)CCN[C@]21CS[C@@H]2c3c(OC(=O)CCCC[C@@H]4SCC5NC(=O)NC54)c(C)c4c(c3[C@H](COC1=O)N1C2[C@H]2c3c(cc(C)c(OC)c3OC(=O)CCCCC3SCC5NC(=O)NC53)C[C@@H]([C@@H]1C#N)N2C)OCO4 (stereo partly drawn) [Compound 148] | – | – | – | – | – | – | 3.32E-07 | 5.19E-07 | GI50 [1, 11]: 140 nM; LC50 (concentration for 50% cell killing) [1, 8]: 0.786 µM; GI50 [2, 12]: 255 nM; LC50 (concentration for 50% cell killing) [2, 10]: 2880 nM
CCCC(=O)Oc1cc2c(cc1OC)[C@@]1(CS[C@@H]3c4c(OC(C)=O)c(C)c5c(c4[C@H](COC1=O)N1C3[C@H]3c4c(cc(C)c(OC)c4OC(=O)CCC)C[C@@H]([C@@H]1C#N)N3C(=O)OC(C)(C)C)OCO5)NCC2 (stereo partly drawn) [Compound 193] | – | – | – | – | – | – | – | – | GI50 [1, 7]: 0.1 nM; LC50 (concentration for 50% cell killing) ([1]; Homo sapiens, HT-29, 48 h, read-out: HT-29 LC50, SRB assay, 48 hours exposure): 20.1 µM; HT-29 TGI ([1]; SRB assay, 48 hours exposure): 2.01E-08; GI50 [2, 9]: 0.401 nM; LC50 (concentration for 50% cell killing) ([2]; Homo sapiens, A549, 48 h, read-out: A-549 LC50, SRB assay, 48 hours exposure): 100 nM; A-549 TGI ([2]; SRB assay, 48 hours exposure): 4.01E-09
